In paper PMC6934184, “Selective DNA-PKcs inhibition extends the therapeutic index of localized radiotherapy and chemotherapy” (The Journal of Clinical Investigation, 2019):

Molecular target: T1, ERBB4 (HER4) (Homo sapiens, UniProt Q15303)
T1 construct: purchased Thermo Fisher Scientific (Life Technologies) SelectScreen
Experiment: SelectScreen Z'LYTE
Type: biochemical
How it was run: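 Percent values come from Thermo SelectScreen profiling of NU5455, combining activity and binding assays. CSF1R was run in Z'LYTE format at Km app ATP, and CAMK1 in Adapta format with ATP listed at 10.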

T1 sequence (Q15303 26-1308): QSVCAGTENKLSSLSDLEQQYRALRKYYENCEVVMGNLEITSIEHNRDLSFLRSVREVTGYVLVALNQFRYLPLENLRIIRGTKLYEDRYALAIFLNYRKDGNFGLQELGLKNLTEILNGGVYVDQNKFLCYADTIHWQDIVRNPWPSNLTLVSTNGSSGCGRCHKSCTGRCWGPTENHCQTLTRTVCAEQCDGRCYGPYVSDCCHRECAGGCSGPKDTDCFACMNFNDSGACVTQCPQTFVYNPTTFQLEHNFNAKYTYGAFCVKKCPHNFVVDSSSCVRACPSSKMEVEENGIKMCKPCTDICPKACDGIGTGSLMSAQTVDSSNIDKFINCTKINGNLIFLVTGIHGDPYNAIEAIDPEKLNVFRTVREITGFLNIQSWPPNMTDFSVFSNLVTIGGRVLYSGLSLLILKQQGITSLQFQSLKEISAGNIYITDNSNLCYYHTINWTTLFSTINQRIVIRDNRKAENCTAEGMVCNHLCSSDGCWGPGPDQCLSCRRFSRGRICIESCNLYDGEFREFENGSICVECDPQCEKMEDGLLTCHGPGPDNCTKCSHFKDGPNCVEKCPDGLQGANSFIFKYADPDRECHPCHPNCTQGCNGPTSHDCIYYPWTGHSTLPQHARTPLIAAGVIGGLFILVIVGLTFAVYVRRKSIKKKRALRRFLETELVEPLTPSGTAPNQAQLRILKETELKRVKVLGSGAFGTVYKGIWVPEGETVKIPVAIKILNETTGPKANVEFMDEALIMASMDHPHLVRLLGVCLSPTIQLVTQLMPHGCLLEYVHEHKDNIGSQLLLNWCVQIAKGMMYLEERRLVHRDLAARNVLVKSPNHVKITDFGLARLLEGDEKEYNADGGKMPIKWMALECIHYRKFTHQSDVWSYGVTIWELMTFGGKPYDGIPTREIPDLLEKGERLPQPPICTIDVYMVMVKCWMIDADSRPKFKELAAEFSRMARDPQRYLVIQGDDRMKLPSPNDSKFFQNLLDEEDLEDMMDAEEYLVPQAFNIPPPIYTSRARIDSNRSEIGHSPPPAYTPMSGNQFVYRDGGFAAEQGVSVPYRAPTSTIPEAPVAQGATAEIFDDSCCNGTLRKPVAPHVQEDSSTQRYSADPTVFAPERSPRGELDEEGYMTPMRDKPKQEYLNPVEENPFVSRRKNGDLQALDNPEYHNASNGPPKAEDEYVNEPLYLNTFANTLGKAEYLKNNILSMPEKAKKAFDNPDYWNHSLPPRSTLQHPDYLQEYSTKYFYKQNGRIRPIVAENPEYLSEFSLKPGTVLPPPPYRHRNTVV

**Q.** Which inhibition at 1 µM does the source give for `CN(C(=O)CN1CCOCC1)c1ccc2sc3c(-c4cccc5c(=O)cc(N6CC7CCC(C6)O7)oc45)cccc3c2c1` [NU5455] here?
**A.** Its inhibition at 1 µM is -2.8%.
